Results on 4 compounds are retold here after publication PMC3413639 (PLoS ONE, 2012).

Like-named read-outs stand apart in the source and are kept apart here.

Data set [1] concerns the target T1, 5-HT1A receptors (Rattus norvegicus, UniProt P19327).
T1 sequence (P19327 1-422): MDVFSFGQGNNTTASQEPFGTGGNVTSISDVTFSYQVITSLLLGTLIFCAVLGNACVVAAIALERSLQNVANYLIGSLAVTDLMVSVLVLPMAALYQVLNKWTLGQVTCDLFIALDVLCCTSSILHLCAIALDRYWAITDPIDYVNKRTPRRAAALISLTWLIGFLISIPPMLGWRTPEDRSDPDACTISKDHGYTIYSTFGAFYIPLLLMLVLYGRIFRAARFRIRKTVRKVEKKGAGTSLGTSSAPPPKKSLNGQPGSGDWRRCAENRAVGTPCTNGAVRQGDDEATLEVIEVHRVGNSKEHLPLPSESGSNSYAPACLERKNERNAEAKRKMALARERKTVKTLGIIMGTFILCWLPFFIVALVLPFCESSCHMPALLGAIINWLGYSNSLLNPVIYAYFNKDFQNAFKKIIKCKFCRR
Kind of data set: [11C]WAY-100635-PET of rats treated with 5,7-DHT, a toxicant for 5-HT neurons. Particulars: 150 µg into right lateral ventricle, scan more than 2 weeks later.

Data set [2] has as its target T1, 5-HT1A receptors. Kind of data set: Autoradiographic [35S]GTPγS binding in rat brain sections. On the set-up: Twenty-micrometer-thick frozen brain sections were preincubated; from tissue; host or cells: rat brain (hippocampus and raphe nucleus): frozen sections or living animals. The format is biochemical. The procedure: Autoradiographic procedures were performed as described previously, with some modifications. The sections were preincubated for 15 min in 50 mM 4-(2-hydroxyethyl)-1-piperazineethanesulfonic acid (HEPES; pH 7.4) containing 10 mM NaCl, 3 mM MgCl2 and 0.2 mM ethylene glycol tetraacetic acid. A second preincubation using the same buffer containing 2 mM GDP was performed for 15 min. The sections were subsequently incubated in the same buffer containing 2 mM GDP, 0.2 mM dithiothreitol and 0.04 nM [^35S]GTPγS for 120 min. Basal [^35S]GTPγS binding was defined in the absence of test drugs. […] Nonspecific binding was estimated using 10 µM nonradioactive GTPγS. The incubation was terminated by ice-cold 50 mM HEPES (pH 7.0). The sections were desalted with ice-cold distilled water, dried, and placed in contact with an imaging plate for 2 days. Signal detection and image analysis were performed as described above.

Data set [3] deals with 5-HT1A receptors. Particulars: maximal safe dose; cited from earlier work.
For data set [4] the following is noted: rats; cited from earlier work.
For data set [5] the following is noted: humans; cited from earlier work.
For data set [6], the target named is T1, 5-HT1A receptors. Kind of data set: In vitro ARG, inhibition of [11C]WAY-100635 binding in rat brain sections. Particulars: hippocampus and raphe nucleus; up to 1000 nM. Further details: Twenty-micrometer-thick frozen brain sections were preincubated; from tissue; host or cells: rat brain (hippocampus and raphe nucleus): frozen sections or living animals. As to the method:
Rats were sacrificed by decapitation. Twenty-micrometer-thick frozen brain sections were preincubated for 30 min in 50 mM Tris-HCl (pH 7.4) containing 1 mM MnCl2. […] Subsequently, the sections were rinsed twice with ice-cold Tris-HCl buffer for 5 min and then desalted with ice-cold distilled water for 10 sec. These samples were warmly blow-dried and placed in contact with an imaging plate (Fuji Film, Tokyo, Japan) for 60 min. Signals on the imaging plate were detected by BAS5000 system (Fuji Film).

Data set [7] concerns the target T1, 5-HT1A receptors. Kind of data set: Ex vivo ARG, 5-HT1A receptor occupancy after drug administration. Type of data set: in vivo. On the set-up: Twenty-micrometer-thick frozen brain sections were preincubated; from tissue; host or cells: rat brain (hippocampus and raphe nucleus): frozen sections or living animals. Conditions: for ED50: rat, ip, read-out: ED50 (5-HT1A receptor occupancy), intraperitoneal, ex vivo ARG. The procedure: Animals were then killed by decapitation 5 h and 30 min after their administration, respectively. Autoradiographic analysis was performed using procedures similar to in vitro ARG except for incubation temperature (37°C) and times for preincubation (30 sec), incubation (5 min) and rinsing (1 min). […] The doses of these drugs at half-maximal effect (ED50) were determined according to the following relationship: [drawing 2] where D is the dose of the drug.

The target in data set [8] is T1, 5-HT1A receptors. Kind of data set: [11C]WAY-100635-PET, BPND and 5-HT1A receptor occupancy. The format is in vivo. Further details: Twenty-micrometer-thick frozen brain sections were preincubated; from tissue; host or cells: rat brain (hippocampus and raphe nucleus): frozen sections or living animals. Conditions: for BPND Hippocampus / BPND Raphe: [11C]WAY-100635; for receptor occupancy at 3 mg/kg / ED50 / receptor occupancy at 1 mg/kg / receptor occupancy at 10 mg/kg / receptor occupancy at 30 mg/kg: rat, ip; for ED50: read-out: ED50 (5-HT1A receptor occupancy), intraperitoneal, PET. The procedure: All PET scans were carried out using a microPET Focus 220 scanner (Siemens Medical Solutions USA, Knoxville, TN). The rats were anesthetized with 1.5–2% isoflurane in air (2 L/min flow rate). […] All list-mode data were stored into 3D sinograms, which were then Fourier-rebinned into 2D sinograms (26 frames: 4×1, 8×2, and 14×5 min). Images were reconstructed using 2D-filtered back-projection with a 0.5-mm Hanning filter. All PET images were manually coregistered to the MRI template by spatial translation and rotation of original PET images without geometric expansion and contraction. ROIs were placed on the hippocampus and raphe nucleus using PMOD® image analysis software (PMOD Group, Zurich, Switzerland) with reference to the MRI template. Fine-tuning of the location of ROIs was then performed based on PET images at an early phase (0–30 min) of the scan in order to compensate for small mismatches between coregistered PET and MR images. The cerebellum was used as reference tissue because of its negligible density of 5-HT1A receptors.

The mark [9] stands for this setting: 1 mg/kg intraperitoneal, about 30 min before scan, mean ± S.E.
[10] abbreviates: 3 mg/kg intraperitoneal + 30 mg/kg fluvoxamine (FLV) oral 30 min before pindolol, mean ± S.E.
[11] abbreviates: 3 mg/kg intraperitoneal, about 30 min before scan, mean ± S.E.
[12] abbreviates: 10 mg/kg intraperitoneal, about 30 min before scan, mean ± S.E.
Where [13] appears, read: 30 mg/kg intraperitoneal, about 30 min before scan, mean ± S.E.
Where [14] appears, read: read-out: Occupancy (%) Hippocampus.

The ED50 is the dose at which the effect has come halfway, by size or by number of responders.

On to `NCCc1c[nH]c2c(O)cc(O)cc12` [5,7-DHT, 5,7-dihydroxytryptamine, reference compound], for which the entries for the “BPND for [11C]WAY-100635 after toxicant treatment” value in data set [1] (hippocampus) and in data set [1] (raphe nucleus) were “almost unchanged” and “profoundly decreased”, respectively.

Regarding `CCCN(CCC)C1CCc2cccc(O)c2C1` (stereo not drawn) [8-OH-DPAT, 8-hydroxy-2-(di-n-propylamino) tetralin], the “[35S]GTPγS binding” value in data set [2] (hippocampus and raphe nucleus, addition of agonist) was “enhanced”. Also, the “[35S]GTPγS binding compared with 1 µM WAY-100635” value in data set [2] (raphe nucleus, 1 µM, p<0.01) is reported as “significantly increased”.

With `CC(C)NCC(O)COc1cccc2[nH]ccc12` (stereo not drawn) [Pindolol, reference compound], in data set [3], the “Occupancy of 5-HT1A autoreceptors” value is given as 60%. For the same compound, the “Proportion of protein-bound drug in plasma or serum” value was 52% in data set [4] and 57% in data set [5]. Moreover, the “Blockage of 5-HT1A receptors by excess amounts of drug” value in data set [6] is given as “near-complete blockage”. Further, in data set [7] (intraperitoneal, 30 min after administration, irrespective of region), the “5-HT1A receptor binding (occupancy), dose-dependent up to” value is listed as roughly 70%. For the same compound, the ED50 in data set [7] (hippocampus) came out at 8.5 mg/kg; in data set [7] (raphe nucleus), 7.3 mg/kg; in data set [8] (hippocampus), 5.6 mg/kg; in data set [8] (raphe nucleus), 2.4 mg/kg. Besides, the “BPND Hippocampus” value in data set [8] (setting [9]) came to 4.787±0.676; in data set [8] (setting [10]), 3.670±0.315; in data set [8] (setting [11]) it was 3.517±0.119; in data set [8] (setting [12]) it was 2.190±0.757; in data set [8] (30 mg/kg intraperitoneal + 30 mg/kg fluvoxamine (FLV) oral 30 min before pindolol, mean ± S.E.), 0.343±0.065; in data set [8] (setting [13]), 0.441±0.173. Moreover, the “BPND Raphe” value in data set [8] (setting [9]) was 1.129±0.164; in data set [8] (setting [10]), 0.783±0.178; in data set [8] (setting [11]), 0.752±0.093; in data set [8] (setting [12]) it was 0.459±0.153; in data set [8] (30 mg/kg intraperitoneal + 30 mg/kg fluvoxamine (FLV) oral 30 min before pindolol) it was 0; in data set [8] (setting [13]) it was 0.029±0.029. The receptor occupancy at 3 mg/kg was roughly 50% in data set [8] (read-out: Difference in occupancy between hippocampus and raphe nucleus); 37 ± 5.6% in data set [8] (setting [14]); 57.3 ± 2.8% in data set [8] (read-out: Occupancy (%) Raphe). Besides, the receptor occupancy at 1 mg/kg in data set [8] (setting [14]) was determined as 15 ± 11.8%; in data set [8] (read-out: Occupancy (%) Raphe), 33.7 ± 14.5%. For the same compound, the receptor occupancy at 10 mg/kg in data set [8] (setting [14]) turned out to be 58.1 ± 18.4%; in data set [8] (read-out: Occupancy (%) Raphe) it was 69.6 ± 14.6%. The receptor occupancy at 30 mg/kg in data set [8] (setting [14]) came out at 91.8 ± 3.4%; in data set [8] (read-out: Occupancy (%) Raphe), 98.3 ± 1.7%. Also, the “Slight increase in [35S]GTPγS binding” value in data set [2] (high concentrations, hippocampus and raphe nucleus, p>0.05) was “not statistically significant”.

For `COCCCC/C(=N\OCCN)c1ccc(C(F)(F)F)cc1` [fluvoxamine, reference compound], in data set [8] (30 mg/kg oral, 30 min before pindolol treatment), the “Effect on 5-HT1A receptor occupancies by pindolol” value was “had no effect”.
